According to patent US10428063B2 (Bayer Pharma Aktiengesellschaft, priority 2015, dated 2019):

Target: catalytic domain of human Bub1 (amino acids 704-1085) (Homo sapiens (Human), UniProt O43683)
Assay: Bub1 kinase assay (TR-FRET)
Format: biochemical
Details: 10 μM ATP, 1 μM peptide substrate, recombinant catalytic domain of human Bub1, read-out: Bub1 kinase assay median IC50
From the text: Bub1-inhibitory activities of compounds described in the present invention were quantified using a time-resolved fluorescence energy transfer (TR-FRET) kinase assay which measures phosphorylation of the synthetic peptide Biotin-Ahx-VLLPKKSFAEPG (C-terminus in amide form), purchased from e.g. Biosyntan (Berlin, Germany) by the (recombinant) catalytic domain of human Bub1 (amino acids 704-1085), expressed in Hi5 insect cells with an N-terminal His6-tag and purified by affinity- (Ni-NTA) and size exclusion chromatography.
In a typical assay 11 different concentrations of each compound (0.1 nM, 0.33 nM, 1.1 nM, 3.8 nM, 13 nM, 44 nM, 0.15 μM, 0.51 μM, 1.7 μM, 5.9 μM and 20 μM) were tested in duplicate within the same microtiter plate. To this end, 100-fold concentrated compound solutions (in DMSO) were previously prepared by serial dilution (1:3.4) of 2 mM stocks in a clear low volume 384-well source microtiter plate (Greiner Bio-One, Frickenhausen, Germany), from which 50 nl of compounds were transferred into a black low volume test microtiter plate from the same supplier. Subsequently, 2 μl of Bub1 (the final concentration of Bub1 was adjusted depending on the activity of the enzyme lot in order to be within the linear dynamic range of the assay: typically ˜200 ng/ml were used) in aqueous assay buffer [50 mM Tris/HCl pH 7.5, 10 mM magnesium chloride (MgCl2), 200 mM potassium chloride (KCl), 1.0 mM dithiothreitol (DTT), 0.1 mM sodium ortho-vanadate, 1% (v/v) glycerol, 0.01% (w/v) bovine serum albumine (BSA), 0.005% (v/v) Trition X-100 (Sigma), 1× Complete EDTA-free protease inhibitor mixture (Roche)] were added to the compounds in the test plate and the mixture was incubated for 15 min at 22° C. to allow pre-equilibration of the putative enzyme-inhibitor complexes before the start of the kinase reaction, which was initiated by the addition of 3 μl 1.67-fold concentrated solution (in assay buffer) of adenosine-tri-phosphate (ATP, 10 μM final concentration) and peptide substrate (1 μM final concentration). The resulting mixture (5 μl final volume) was incubated at 22° C. during 60 min., and the reaction was stopped by the addition of 5 μl of an aqueous EDTA-solution (50 mM EDTA, in 100 mM HEPES pH 7.5 and 0.2% (w/v) bovine serum albumin) which also contained the TR-FRET detection reagents (0.2 μM streptavidin-XL665 [Cisbio Bioassays, Codolet, France] and 1 nM anti-phosho-Serine antibody [Merck Millipore, cat. #35-002] and 0.4 nM LANCE EU-W1024 labeled anti-mouse IgG antibody [Perkin-Elmer, product no. AD0077, alternatively a Terbium-cryptate-labeled anti-mouse IgG antibody from Cisbio Bioassays can be used]). The stopped reaction mixture was further incubated 1 h at 22° C. in order to allow the formation of complexes between peptides and detection reagents. Subsequently, the amount of product was evaluated by measurement of the resonance energy transfer from the Eu-chelate-antibody complex recognizing the Phosphoserine residue to the streptavidin-XL665 bound to the biotin moiety of the peptide. To this end, the fluorescence emissions at 620 nm and 665 nm after excitation at 330-350 nm were measured in a TR-FRET plate reader, e.g. a Rubystar or Pherastar (both from BMG Labtechnologies, Offenburg, Germany) or a Viewlux (Perkin-Elmer) and the ratio of the emissions (665 nm/622 nm) was taken as indicator for the amount of phosphorylated substrate. The data were normalised using two sets of control wells for high- (=enzyme reaction without inhibitor=0%=Minimum inhibition) and low- (=all assay components without enzyme=100%=Maximum inhibition) Bub1 activity. IC50 values were calculated by fitting the normalized inhibition data to a 4-parameter logistic equation (Minimum, Maximum, IC50, Hill; Y=Max+(Min−Max)/(1+(X/IC50)Hill)).

Chain of catalytic domain of human Bub1 (amino acids 704-1085) (O43683 704-1085): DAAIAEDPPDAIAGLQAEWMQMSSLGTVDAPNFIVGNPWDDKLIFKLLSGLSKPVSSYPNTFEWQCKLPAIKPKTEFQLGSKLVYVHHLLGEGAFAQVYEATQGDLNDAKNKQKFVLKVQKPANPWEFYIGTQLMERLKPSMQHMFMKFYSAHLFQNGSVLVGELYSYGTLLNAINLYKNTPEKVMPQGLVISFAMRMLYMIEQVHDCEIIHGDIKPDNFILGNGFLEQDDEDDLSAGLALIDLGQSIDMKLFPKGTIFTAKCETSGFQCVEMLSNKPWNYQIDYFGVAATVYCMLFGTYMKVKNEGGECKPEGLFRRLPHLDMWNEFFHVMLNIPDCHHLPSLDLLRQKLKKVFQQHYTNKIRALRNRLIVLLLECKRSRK

First: O=C1NCCc2[nH]c(-c3ccncc3OCC(F)F)c(Nc3ccc(F)c(F)c3)c21 [Example 43, 2-[3-(2,2-difluoroethoxy)pyridin-4-yl]-3-[(3,4-difluorophenyl)amino]-1,5,6,7-tetrahydro-4H-pyrrolo[3,2-c]pyridin-4-one]
Second: COCCOc1cnccc1-c1[nH]c2c(c1Nc1ccc(F)c(F)c1)C(=O)NCC2 [Example 45, 3-[(3,4-difluorophenyl)amino]-2-[3-(2-methoxyethoxy)pyridin-4-yl]-1,5,6,7-tetrahydro-4H-pyrrolo[3,2-c]pyridin-4-one]
The IC50 of the first is 4.9-fold higher: 136 nM for the first, 28 nM for the second.

Compared with COCCOc1cnccc1-c1[nH]c2c(c1Nc1ccc(F)cc1)C(=O)NCC2 [Example 46, 3-[(4-fluorophenyl)amino]-2-[3-(2-methoxyethoxy)pyridin-4-yl]-1,5,6,7-tetrahydro-4H-pyrrolo[3,2-c]pyridin-4-one], COCCOc1cnccc1-c1[nH]c2c(c1Nc1cccc(F)c1)C(=O)NCC2 [Example 47, 3-[(3-fluorophenyl)amino]-2-[3-(2-methoxyethoxy)pyridin-4-yl]-1,5,6,7-tetrahydro-4H-pyrrolo[3,2-c]pyridin-4-one] is 1.7-fold lower in IC50: 32.8 nM for the first, 19.4 nM for the second.
